This assay has as its system MV-4-11 cells. The assay is described as follows: Gene expression microarray analysis (Affymetrix PrimeView) and GSEA. Also noted: RFU PODN (11730768_x_at) / Fold change /veh PODN (11730768_x_at) / RFU LINC00158 (11744669_a_at) / Fold change /veh LINC00158 (11744669_a_at) / RFU DUSP10 (11751237_a_at) / Fold change /veh DUSP10 (11751237_a_at) / RFU ID3 (11757404_x_at) / Fold change /veh ID3 (11757404_x_at) / RFU PLEKHG5 (11737974_s_at) / Fold change /veh PLEKHG5 (11737974_s_at) / RFU LRRC4B (11730491_at) / Fold change /veh LRRC4B (11730491_at) / RFU GIMAP4 (11747438_a_at) / Fold change /veh GIMAP4 (11747438_a_at) / RFU KRT8 (11758183_x_at) / Fold change /veh KRT8 (11758183_x_at) / RFU CNN1 (11734310_a_at) / Fold change /veh CNN1 (11734310_a_at) / RFU VPS37D (11726825_at) / Fold change /veh VPS37D (11726825_at) / RFU C10orf10 (11716522_x_at) / Fold change /veh C10orf10 (11716522_x_at) / RFU KIR2DL2 /// KIR2DL4 /// KIR2DL5A /// KIR2DL5B /// KIR2DS1 /// KIR2DS2 /// KIR2DS3 /// KIR2DS4 /// KIR3DL3 /// KIR3DL3 /// KIR3DS1 (11738374_at) / Fold change /veh KIR2DL2 /// KIR2DL4 /// KIR2DL5A /// KIR2DL5B /// KIR2DS1 /// KIR2DS2 /// KIR2DS3 /// KIR2DS4 /// KIR3DL3 /// KIR3DL3 /// KIR3DS1 (11738374_at) / RFU C1QL1 (11718748_at) / Fold change /veh C1QL1 (11718748_at) / RFU TMPRSS4 (11747572_a_at) / Fold change /veh TMPRSS4 (11747572_a_at) / RFU HAMP (11756126_x_at) / Fold change /veh HAMP (11756126_x_at) / RFU RNFT2 (11725882_a_at) / Fold change /veh RNFT2 (11725882_a_at) / RFU NR4A2 (11747474_a_at) / Fold change /veh NR4A2 (11747474_a_at) / RFU ABCC12 (11746883_a_at) / Fold change /veh ABCC12 (11746883_a_at) / RFU TMEM136 (11760407_x_at) / Fold change /veh TMEM136 (11760407_x_at) / RFU CLDN22 /// WWC2 (11732394_at) / Fold change /veh CLDN22 /// WWC2 (11732394_at) / RFU HLA-DPB1 (11760878_x_at) / Fold change /veh HLA-DPB1 (11760878_x_at) / RFU SPINT1 (11716480_a_at) / Fold change /veh SPINT1 (11716480_a_at) / RFU GAP43 (11754022_s_at) / Fold change /veh GAP43 (11754022_s_at) / RFU A4GNT (11735810_at) / Fold change /veh A4GNT (11735810_at) / RFU PRB3 (11715151_x_at) / Fold change /veh PRB3 (11715151_x_at) / RFU TUBB4B (11761932_at) / Fold change /veh TUBB4B (11761932_at) / RFU CAPN14 (11732068_a_at) / Fold change /veh CAPN14 (11732068_a_at) / RFU TMCC2 (11721928_a_at) / Fold change /veh TMCC2 (11721928_a_at) / RFU IRGQ (11745062_a_at) / Fold change /veh IRGQ (11745062_a_at) / RFU FAM174B (11720279_a_at) / Fold change /veh FAM174B (11720279_a_at) / RFU TMPRSS4 (11748680_a_at) / Fold change /veh TMPRSS4 (11748680_a_at) / RFU FAM212B (11763350_a_at) / Fold change /veh FAM212B (11763350_a_at) / RFU PLEKHG5 (11743358_a_at) / Fold change /veh PLEKHG5 (11743358_a_at) / RFU ZSCAN30 (11745921_a_at) / Fold change /veh ZSCAN30 (11745921_a_at) / RFU CMKLR1 (11741424_a_at) / Fold change /veh CMKLR1 (11741424_a_at) / RFU LOC101060620 /// MAPK8IP1 (11723275_at) / Fold change /veh LOC101060620 /// MAPK8IP1 (11723275_at) / RFU SPTSSB (11747773_x_at) / Fold change /veh SPTSSB (11747773_x_at) / RFU PRSS12 (11739890_at) / Fold change /veh PRSS12 (11739890_at) / RFU BIN1 (11741810_x_at) / Fold change /veh BIN1 (11741810_x_at) / RFU WNT11 (11732464_a_at) / Fold change /veh WNT11 (11732464_a_at) / RFU C10orf10 (11716521_a_at) / Fold change /veh C10orf10 (11716521_a_at) / RFU C5orf56 (11738089_at) / Fold change /veh C5orf56 (11738089_at) / RFU CYB561 (11721691_x_at) / Fold change /veh CYB561 (11721691_x_at) / RFU ANKRD19P (11752326_a_at) / Fold change /veh ANKRD19P (11752326_a_at) / RFU OR2T12 /// OR2T33 /// OR2T8 (11738714_s_at) / Fold change /veh OR2T12 /// OR2T33 /// OR2T8 (11738714_s_at) / RFU VCAN (11748164_a_at) / Fold change /veh VCAN (11748164_a_at) / RFU JSRP1 (11732532_at) / Fold change /veh JSRP1 (11732532_at) / RFU KRTAP10-11 (11738290_x_at) / Fold change /veh KRTAP10-11 (11738290_x_at) / RFU MYO3A (11730013_a_at) / Fold change /veh MYO3A (11730013_a_at) / RFU EBF3 (11725865_a_at) / Fold change /veh EBF3 (11725865_a_at) / RFU CAMK2N1 (11719241_x_at) / Fold change /veh CAMK2N1 (11719241_x_at) / RFU C5orf56 (11738088_a_at) / Fold change /veh C5orf56 (11738088_a_at) / RFU OLFML3 (11715873_a_at) / Fold change /veh OLFML3 (11715873_a_at) / RFU LOC100653217 /// NTM (11731650_a_at) / Fold change /veh LOC100653217 /// NTM (11731650_a_at) / RFU MAPK11 (11762145_a_at) / Fold change /veh MAPK11 (11762145_a_at) / RFU FIZ1 (11724087_x_at) / Fold change /veh FIZ1 (11724087_x_at) / RFU OASL (11726364_x_at) / Fold change /veh OASL (11726364_x_at) / RFU SOX15 (11748057_x_at) / Fold change /veh SOX15 (11748057_x_at) / RFU CD79A (11719716_a_at) / Fold change /veh CD79A (11719716_a_at) / RFU HIST1H1D (11736915_at) / Fold change /veh HIST1H1D (11736915_at) / RFU CASKIN2 (11723855_a_at) / Fold change /veh CASKIN2 (11723855_a_at) / RFU LOC730098 (11760151_x_at) / Fold change /veh LOC730098 (11760151_x_at) / RFU OR4N2 (11742367_at) / Fold change /veh OR4N2 (11742367_at) / RFU PRRT2 (11749266_a_at) / Fold change /veh PRRT2 (11749266_a_at) / RFU SNX32 (11753110_a_at) / Fold change /veh SNX32 (11753110_a_at) / RFU CDHR5 (11726645_a_at) / Fold change /veh CDHR5 (11726645_a_at) / RFU RCAN1 (11760418_a_at) / Fold change /veh RCAN1 (11760418_a_at) / RFU FAM167A (11723789_a_at) / Fold change /veh FAM167A (11723789_a_at) / RFU FAM26E (11764081_at) / Fold change /veh FAM26E (11764081_at) / RFU ISYNA1 (11749810_s_at) / Fold change /veh ISYNA1 (11749810_s_at) / RFU ACY1 (11761880_at) / Fold change /veh ACY1 (11761880_at) / RFU 11764098_at / Fold change /veh 11764098_at / RFU SAMD14 (11745864_x_at) / Fold change /veh SAMD14 (11745864_x_at) / RFU NPB (11741838_a_at) / Fold change /veh NPB (11741838_a_at) / RFU TMPRSS6 (11731388_a_at) / Fold change /veh TMPRSS6 (11731388_a_at) / RFU KRTAP10-2 (11738614_at) / Fold change /veh KRTAP10-2 (11738614_at) / RFU ARHGAP8 /// PRR5-ARHGAP8 (11727945_x_at) / Fold change /veh ARHGAP8 /// PRR5-ARHGAP8 (11727945_x_at) / RFU KRTAP5-7 /// NADSYN1 (11734609_at) / Fold change /veh KRTAP5-7 /// NADSYN1 (11734609_at) / RFU RASL12 (11751679_a_at) / Fold change /veh RASL12 (11751679_a_at) / RFU CDKN2B (11736163_a_at) / Fold change /veh CDKN2B (11736163_a_at) / RFU PRF1 (11729649_at) / Fold change /veh PRF1 (11729649_at) / RFU, ZNF638 /// ZNF638-IT1 / Fold change vs veh, ZNF638 /// ZNF638-IT1 / RFU, PANK3 / Fold change vs veh, PANK3 / RFU, SH3YL1 / Fold change vs veh, SH3YL1 / RFU, ZEB2 / Fold change vs veh, ZEB2 / RFU, NRIP1 / Fold change vs veh, NRIP1 / RFU, PTTG1IP / Fold change vs veh, PTTG1IP / RFU, CAPN2 / Fold change vs veh, CAPN2 / RFU, MED14 / Fold change vs veh, MED14 / RFU, SNORA58 / Fold change vs veh, SNORA58 / RFU, C1orf63 / Fold change vs veh, C1orf63 / RFU, LRRFIP1 / Fold change vs veh, LRRFIP1 / RFU, NDUFAF7 / Fold change vs veh, NDUFAF7 / RFU, SLC12A2 / Fold change vs veh, SLC12A2 / RFU, IBTK / Fold change vs veh, IBTK / RFU, ESF1 / Fold change vs veh, ESF1 / Fold change vs veh, TMEM50B / RFU, TAOK1 / Fold change vs veh, TAOK1 / RFU, ACBD3 / Fold change vs veh, ACBD3 / RFU, TMA16 / Fold change vs veh, TMA16 / RFU, RWDD3 / Fold change vs veh, RWDD3 / RFU, BCAT1 / Fold change vs veh, BCAT1 / RFU, EDEM3 / Fold change vs veh, EDEM3 / RFU, TMEM33 / Fold change vs veh, TMEM33 / RFU, WDR75 / Fold change vs veh, WDR75 / RFU, AHCTF1 / Fold change vs veh, AHCTF1 / RFU, TFRC / Fold change vs veh, TFRC / RFU, ZDHHC17 / Fold change vs veh, ZDHHC17 / RFU, NOM1 / Fold change vs veh, NOM1 / RFU, ARL8B / Fold change vs veh, ARL8B / RFU, ZBTB11 / Fold change vs veh, ZBTB11 / RFU, TAMM41 / Fold change vs veh, TAMM41 / RFU, KIAA1704 /// LOC100996395 / Fold change vs veh, KIAA1704 /// LOC100996395 / RFU, ING1 / Fold change vs veh, ING1 / RFU, TRMT61B / Fold change vs veh, TRMT61B / RFU, FUBP3 / Fold change vs veh, FUBP3 / RFU, TP53 / Fold change vs veh, TP53 / RFU, TNKS2 / Fold change vs veh, TNKS2 / RFU, ZFP14 / Fold change vs veh, ZFP14 / RFU, ACTR2 / Fold change vs veh, ACTR2 / RFU, PPP3R1 / Fold change vs veh, PPP3R1 / RFU, PIK3R1 / Fold change vs veh, PIK3R1 / RFU, HNRNPA1 / Fold change vs veh, HNRNPA1 / RFU, RNF170 / Fold change vs veh, RNF170 / RFU, ZNF28 / Fold change vs veh, ZNF28 / RFU, RNGTT / Fold change vs veh, RNGTT / RFU, OGT / Fold change vs veh, OGT / RFU, BRD1 / Fold change vs veh, BRD1 / RFU, MARS / Fold change vs veh, MARS / RFU, ZNF655 / Fold change vs veh, ZNF655 / RFU, FAHD1 / Fold change vs veh, FAHD1 / RFU, BDP1 / Fold change vs veh, BDP1 / RFU, LRRCC1 / Fold change vs veh, LRRCC1 / RFU, ARID1A / Fold change vs veh, ARID1A / RFU, ZNF146 / Fold change vs veh, ZNF146 / RFU, ZNF330 / Fold change vs veh, ZNF330 / RFU, GPN3 / Fold change vs veh, GPN3 / RFU, C9orf123 / Fold change vs veh, C9orf123 / RFU, N4BP2L2 / Fold change vs veh, N4BP2L2 / RFU, ARFIP1 / Fold change vs veh, ARFIP1 / RFU, FAM179B / Fold change vs veh, FAM179B / RFU, BCL10 / Fold change vs veh, BCL10 / RFU, UHRF1BP1L / Fold change vs veh, UHRF1BP1L / RFU, BET1 / Fold change vs veh, BET1 / RFU, CNOT2 / Fold change vs veh, CNOT2 / RFU, ZNF268 / Fold change vs veh, ZNF268 / Fold change vs veh, ZNF507 / RFU, DGCR2 / Fold change vs veh, DGCR2 / RFU, WDSUB1 / Fold change vs veh, WDSUB1 / Fold change vs veh, HSP90B1 /// MIR3652 / RFU, ADSS / Fold change vs veh, ADSS / RFU, GK / Fold change vs veh, GK / RFU, ZNF148 / Fold change vs veh, ZNF148 / RFU, TAF9 / Fold change vs veh, TAF9 / RFU, SLC1A5 / Fold change vs veh, SLC1A5 / RFU, SLMO2 / Fold change vs veh, SLMO2 / RFU, ABCC4 / Fold change vs veh, ABCC4 / RFU, LOC101060439 /// RAP1B / Fold change vs veh, LOC101060439 /// RAP1B / RFU, RFX7 / Fold change vs veh, RFX7 / RFU, GTPBP10 / Fold change vs veh, GTPBP10 / RFU, CNEP1R1 / Fold change vs veh, CNEP1R1 / RFU, BIVM-ERCC5 /// ERCC5 / Fold change vs veh, BIVM-ERCC5 /// ERCC5 / RFU, ILF3 / Fold change vs veh, ILF3 / RFU 11762660_at / Fold change /veh 11762660_at / RFU VCAN (11757783_s_at) / Fold change /veh VCAN (11757783_s_at) / RFU DDX43 (11728927_at) / Fold change /veh DDX43 (11728927_at) / RFU KRT8 (11758188_x_at) / Fold change /veh KRT8 (11758188_x_at) / RFU NKD1 (11759106_at) / Fold change /veh NKD1 (11759106_at) / RFU SRD5A1 (11742802_a_at) / Fold change /veh SRD5A1 (11742802_a_at) / RFU TPSAB1 /// TPSB2 (11721975_s_at) / Fold change /veh TPSAB1 /// TPSB2 (11721975_s_at) / RFU GSTM3 (11746129_a_at) / Fold change /veh GSTM3 (11746129_a_at) / RFU IL23R (11737362_x_at) / Fold change /veh IL23R (11737362_x_at) / RFU TMEM51 (11727254_a_at) / Fold change /veh TMEM51 (11727254_a_at) / RFU PIWIL2 (11732686_x_at) / Fold change /veh PIWIL2 (11732686_x_at) / RFU ORM1 (11744905_x_at) / Fold change /veh ORM1 (11744905_x_at) / RFU CCDC152 (11743942_at) / Fold change /veh CCDC152 (11743942_at) / RFU ECM1 (11717891_a_at) / Fold change /veh ECM1 (11717891_a_at) / RFU IL23R (11748794_a_at) / Fold change /veh IL23R (11748794_a_at) / RFU TNFAIP8L3 (11732012_x_at) / Fold change /veh TNFAIP8L3 (11732012_x_at) / RFU MBOAT4 (11741988_at) / Fold change /veh MBOAT4 (11741988_at) / RFU 11764193_at / Fold change /veh 11764193_at / RFU TMEM53 (11763286_at) / Fold change /veh TMEM53 (11763286_at) / RFU MAGEB2 (11727129_at) / Fold change /veh MAGEB2 (11727129_at) / RFU TMEM200A (11744735_a_at) / Fold change /veh TMEM200A (11744735_a_at) / RFU CCDC152 (11751479_a_at) / Fold change /veh CCDC152 (11751479_a_at) / RFU FAM211A (11726209_a_at) / Fold change /veh FAM211A (11726209_a_at) / RFU RGS16 (11746705_a_at) / Fold change /veh RGS16 (11746705_a_at) / RFU VCAN (11755009_s_at) / Fold change /veh VCAN (11755009_s_at) / RFU RHOB (11743442_s_at) / Fold change /veh RHOB (11743442_s_at) / RFU RGS16 (11720943_a_at) / Fold change /veh RGS16 (11720943_a_at) / RFU RGS16 (11720944_at) / Fold change /veh RGS16 (11720944_at) / RFU, VPS4B / Fold change vs veh, VPS4B / RFU, CREB1 / Fold change vs veh, CREB1 / RFU, DNAJC13 / Fold change vs veh, DNAJC13 / RFU, GNAQ / Fold change vs veh, GNAQ / RFU, CDK5R1 / Fold change vs veh, CDK5R1 / RFU, ZRANB3 / Fold change vs veh, ZRANB3 / RFU, CUL4A / Fold change vs veh, CUL4A / RFU, CCNY / Fold change vs veh, CCNY / RFU, UFL1 / Fold change vs veh, UFL1 / RFU, COG3 / Fold change vs veh, COG3 / RFU, DIAPH2 / Fold change vs veh, DIAPH2 / RFU, SKA2 / Fold change vs veh, SKA2 / RFU, AFF3 / Fold change vs veh, AFF3 / RFU, LMF1 / Fold change vs veh, LMF1 / RFU, IPO11 / Fold change vs veh, IPO11 / RFU, DFFB / Fold change vs veh, DFFB / RFU, FOXP1 / Fold change vs veh, FOXP1 / RFU, CARD8 / Fold change vs veh, CARD8 / RFU, STRN3 / Fold change vs veh, STRN3 / RFU, ADK / Fold change vs veh, ADK / RFU, RASSF2 / Fold change vs veh, RASSF2 / RFU, WIPF1 / Fold change vs veh, WIPF1 / RFU, LARP1B / Fold change vs veh, LARP1B / RFU, RASA1 / Fold change vs veh, RASA1 / RFU, RB1 / Fold change vs veh, RB1 / RFU, PPFIA1 / Fold change vs veh, PPFIA1 / RFU, MAT2A / Fold change vs veh, MAT2A / RFU, CCT5 / Fold change vs veh, CCT5 / RFU, WDR92 / Fold change vs veh, WDR92 / RFU, CUX1 / Fold change vs veh, CUX1 / RFU, TTC7A / Fold change vs veh, TTC7A / RFU, TMEM135 / Fold change vs veh, TMEM135 / RFU, DEPTOR / Fold change vs veh, DEPTOR / RFU, CPM / Fold change vs veh, CPM / RFU, DNAJB6 / Fold change vs veh, DNAJB6 / RFU, CACNA2D3 / Fold change vs veh, CACNA2D3 / RFU, DTX4 / Fold change vs veh, DTX4 / RFU, TFCP2 / Fold change vs veh, TFCP2 / RFU, GMCL1 /// GMCL1P1 / Fold change vs veh, GMCL1 /// GMCL1P1 / RFU, AEBP2 / Fold change vs veh, AEBP2 / RFU, SNHG1 /// SNORD22 /// SNORD25 /// SNORD26 /// SNORD27 /// SNORD28 /// SNORD29 /// SNORD31 / Fold change vs veh, SNHG1 /// SNORD22 /// SNORD25 /// SNORD26 /// SNORD27 /// SNORD28 /// SNORD29 /// SNORD31 / Fold change (Aza/veh), C12orf56 (ProbeSet 11735607_a_at) / Fold change (ACY-1035/veh), C12orf56 (ProbeSet 11735607_a_at) / Fold change (Aza/veh), FGFR1OP (ProbeSet 11751329_s_at) / Fold change (ACY-1035/veh), FGFR1OP (ProbeSet 11751329_s_at) / Fold change (Aza/veh), VPS36 (ProbeSet 11739960_a_at) / Fold change (ACY-1035/veh), VPS36 (ProbeSet 11739960_a_at) / RFU SYPL1 (11715823_x_at) / Fold change /veh SYPL1 (11715823_x_at) / RFU IGFBP7 (11715501_s_at) / Fold change /veh IGFBP7 (11715501_s_at) / RFU REEP3 (11722064_at) / Fold change /veh REEP3 (11722064_at) / RFU IGLL1 (11728026_x_at) / Fold change /veh IGLL1 (11728026_x_at): dose or concentration left out as unconfirmed. The settings on record: MV-4-11 cells, 48 hours. The assay is classed as cell-based, human.

As to `Nc1ncn([C@@H]2O[C@H](CO)[C@@H](O)[C@H]2O)c(=O)n1` [azacitidine], the “Fold change /veh FAM174B (11720279_a_at)” value is on record as 1.12.

(Values after paper PMC5218480 (PLoS ONE, 2017).)
